The results in this text go back to ChEMBL document CHEMBL1133787, “Solid-phase optimisation of achiral amidinobenzyl indoles as potent and selective factor Xa inhibitors” (Bioorg Med Chem Lett, 2001).

Broadly, the pKi is the negative decadic logarithm of the Ki, by convention in mol/L. A lower pKi goes with a large Ki.

One assay deals with Coagulation factor X (Homo sapiens, UniProt P00742). Nature of the assay: Inhibitory activity against serine protease factor Xa (fXa) was determined.
Another assay concerns the target Prothrombin (Homo sapiens, UniProt P00734). In words: Inhibitory activity against thrombin was determined.

pKi: −log10 of the molar value.

Coagulation factor X, sequence (P00742 41-179 limits assumed): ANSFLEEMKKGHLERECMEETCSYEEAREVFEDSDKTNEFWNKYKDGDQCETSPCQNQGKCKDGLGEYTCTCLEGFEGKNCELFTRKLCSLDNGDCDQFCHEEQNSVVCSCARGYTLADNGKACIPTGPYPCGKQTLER
Coagulation factor X, sequence (P00742 235-488 limits assumed): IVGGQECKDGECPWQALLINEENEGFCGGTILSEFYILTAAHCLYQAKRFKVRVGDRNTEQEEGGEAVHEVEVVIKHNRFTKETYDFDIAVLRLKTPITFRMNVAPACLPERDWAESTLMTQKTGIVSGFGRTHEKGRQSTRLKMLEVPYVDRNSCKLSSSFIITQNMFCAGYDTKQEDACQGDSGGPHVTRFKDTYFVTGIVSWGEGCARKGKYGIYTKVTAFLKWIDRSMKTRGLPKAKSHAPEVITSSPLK

For `C[N+](C)(C)c1ccc(CNC(=O)c2cc3cc(O)ccc3n2Cc2cccc(C(=N)N)c2)cc1`, the pKi at Coagulation factor X was 7.55; on Prothrombin it was 4.92.
As to `Cc1cc(C)cc(CNC(=O)c2cc3c(O)cccc3n2Cc2cccc(C(=N)N)c2)c1`, the values for the pKi at Coagulation factor X and at Prothrombin were 7.96 and 6.21, respectively.
On Coagulation factor X, `N=C(N)c1cccc(CNC(=O)c2cc3cc(N)ccc3n2Cc2cccc(C(=N)N)c2)c1` had a negative-log Ki (pKi) of 7.08.
With `N=C(N)c1cccc(CNC(=O)c2cc3c(O)cccc3n2Cc2cccc(C(=N)N)c2)c1`, the pKi on Prothrombin is 5.44.
Consider `N=C(N)c1cccc(Cn2c(C(=O)NCc3cccc(Cl)c3)cc3c(O)cccc32)c1`, for which the pKi on Coagulation factor X was 6.58.
`N=C(N)c1cccc(Cn2c(C(=O)Nc3cc(Cl)cc(Cl)c3)cc3c(O)cccc32)c1` had a pKi on Coagulation factor X of 6.10.
Regarding `N=C(N)c1cccc(Cn2c(C(=O)NCCc3cccc(Cl)c3)cc3c(O)cccc32)c1`, at Coagulation factor X, the pKi is 6.15.
In the case of `N=C(N)c1cccc(Cn2c(C(=O)NCc3cc(Cl)cc(Cl)c3)cc3c(O)cccc32)c1`, the values for the pKi on Coagulation factor X and on Prothrombin were 8.30 and 6.11, respectively.
